Experimental data reported in patent EP1344776A1, “5- 2-hydroxy-3-[1-(3-trifluoromethylphenyl)-cyclopropyl]-propionylamino -phtalide and 6- 2-hydroxy-3-[1-(3-trifluoromethylphenyl)-cyclopropyl]-propionylamino -4-methyl-2,3-benzoxazin-1-one derivatives with progesterone receptor modulating activity for use in fertility control, hormone replacement …” (Schering Aktiengesellschaft, priority 2002, dated 2003).

Biological target: T1, glucocorticoid receptor (GR) (Homo sapiens, UniProt P04150)
T1 sequence (P04150 1-777): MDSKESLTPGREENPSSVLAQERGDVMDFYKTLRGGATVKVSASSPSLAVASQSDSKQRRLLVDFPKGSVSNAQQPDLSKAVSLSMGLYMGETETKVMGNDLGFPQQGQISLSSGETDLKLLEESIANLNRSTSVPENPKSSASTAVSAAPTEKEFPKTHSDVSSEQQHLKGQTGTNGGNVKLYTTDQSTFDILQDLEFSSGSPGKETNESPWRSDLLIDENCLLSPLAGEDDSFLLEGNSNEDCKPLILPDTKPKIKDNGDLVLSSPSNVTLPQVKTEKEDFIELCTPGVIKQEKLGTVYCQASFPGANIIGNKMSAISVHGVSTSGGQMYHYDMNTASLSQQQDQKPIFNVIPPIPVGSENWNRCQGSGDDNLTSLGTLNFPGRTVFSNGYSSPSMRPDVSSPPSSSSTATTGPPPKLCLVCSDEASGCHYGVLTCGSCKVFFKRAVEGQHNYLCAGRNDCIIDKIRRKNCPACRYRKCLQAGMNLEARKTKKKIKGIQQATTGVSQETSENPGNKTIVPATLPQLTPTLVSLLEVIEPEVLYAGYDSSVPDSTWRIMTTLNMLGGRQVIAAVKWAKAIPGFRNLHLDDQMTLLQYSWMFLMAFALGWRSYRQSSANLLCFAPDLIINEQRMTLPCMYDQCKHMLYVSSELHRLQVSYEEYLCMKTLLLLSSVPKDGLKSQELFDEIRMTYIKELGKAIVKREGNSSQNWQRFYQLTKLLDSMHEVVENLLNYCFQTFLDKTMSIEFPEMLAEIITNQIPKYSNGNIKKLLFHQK
Experiment: Glucocorticoid receptor binding

For `O=C1OCc2cc(NC(=O)C(O)(CC3(c4cc(C(F)(F)F)ccc4F)CC3)C(F)(F)F)ccc21` (single isomer, unassigned; (+)) [((+)-1), (+)-5-{2-hydroxy-3-[1-(2-fluoro-5-trifluoromethylphenyl)-cyclopropyl]-2-trifluoromethyl-propionylamino}-phthalide], the “affinity for the glucocorticoid receptor (GR)” value was “very high”.
